The values below come from US20080312333A1, “Agent for Preventing/Ameliorating Life Style-Related Diseases Containing Turmeric Essential Oil Component” (Kaneka Corporation, priority 2004, published 2008).

For the experiment, the target named is T1, PPARγ (Homo sapiens, UniProt P37231).
T1 construct: GAL4 (yeast transcription factor, amino acids 1-147); expressed in transfected cells; host or cells: CV-1 cells (African green monkey kidney)
T1 sequence (P37231 204-505): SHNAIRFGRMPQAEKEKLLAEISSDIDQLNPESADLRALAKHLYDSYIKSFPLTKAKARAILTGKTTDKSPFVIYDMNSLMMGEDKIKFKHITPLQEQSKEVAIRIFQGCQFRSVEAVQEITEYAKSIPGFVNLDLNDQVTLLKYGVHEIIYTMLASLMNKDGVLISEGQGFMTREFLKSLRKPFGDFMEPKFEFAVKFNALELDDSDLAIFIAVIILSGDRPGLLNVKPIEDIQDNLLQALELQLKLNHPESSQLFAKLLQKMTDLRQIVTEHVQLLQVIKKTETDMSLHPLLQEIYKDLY
In words: PPARγ ligand activity, GAL4-PPARγ ligand binding site luciferase reporter in CV-1 cells. The experiment is classed as cell-based. The settings on record: for PPARγ ligand activity: ratio to no treatment control (1.00), mean ± standard error, n = 3. The procedure:
CV-1 cells (male African green monkey kidney-derived cultured cells) were seeded onto a 96-well culture plate (6×10^3 cells/well) and cultured under conditions of 37° C. and 5% CO2 for 24 hours. The medium used was DMEM (Dulbecco's modified Eagle medium; GIBCO) supplemented with 10% FBS (fetal bovine serum), 10 ml/L of a solution of penicillin and streptomycin (5,000 IU/ml and 5,000 μg/ml, respectively; GIBCO) and 37 mg/L of ascorbic acid (Wako Pure Chemical Industries, Ltd.). […] Each sample was dissolved in dimethyl sulfoxide (DMSO) and the solution, or DMSO used in a no treatment control group, was added to the medium to each concentration given in Table 4. Cells were washed with phosphate-buffered saline (PBS+) containing Ca and Mg, then luclite (PerkinElmer), a luciferase chemiluminescence reagent, was added, and the luciferase-due chemiluminescence intensity was measured using a TopCount microplate scintillation/luminescence counter (PerkinElmer).
On the technique in general: Reporter assays use an easily measured gene product as a stand-in for the process of interest.

Take `CC(C)=CC(=O)C[C@H](C)c1ccc(C)cc1` [ar-turmerone]: the PPARγ ligand activity is reported as 1.51 ± 0.14 (addition level 2 μg/ml) and 2.33 ± 0.59 (addition level 5 μg/ml). For the same molecule, the “PPARγ ligand activity (in words)” value (summary of Table 4) is listed as “found to have PPARγ ligand activity”.
